Assay results from the NIST ThermoML archive (doi:10.1016/j.jct.2016.05.001).

Test: molar heat capacity at constant pressure
Conditions: 101.33 kPa, Crystal, Small (less than 1 g) adiabatic calorimetry

Nc1nc2ncc(CNc3ccc(C(=O)N[C@@H](CCC(=O)O)C(=O)O)cc3)nc2c(=O)[nH]1.O.O [folic acid dihydrate]
Conditions | molar heat capacity at constant pressure [J/K/mol]
4 K | 0.102
5 K | 0.2491
6 K | 0.5453
6.19 K | 0.593
6.38 K | 0.655
6.61 K | 0.721
6.75 K | 0.802
6.92 K | 0.887
7 K | 0.912
7.08 K | 0.945
7.25 K | 1.04
7.41 K | 1.13
7.57 K | 1.252
7.74 K | 1.385
7.91 K | 1.525
8 K | 1.566
8.09 K | 1.638
8.26 K | 1.768
8.44 K | 1.945
8.62 K | 2.088
8.81 K | 2.306
8.99 K | 2.516
9 K | 2.515
9.18 K | 2.748
9.37 K | 2.964
9.57 K | 3.161
9.76 K | 3.423
9.96 K | 3.738
10 K | 3.778
10.25 K | 4.166
10.62 K | 4.708
10.99 K | 5.254
11.38 K | 5.862
11.76 K | 6.483
12.15 K | 7.179
12.54 K | 7.815
12.94 K | 8.333
13.34 K | 8.928
13.74 K | 9.587
14.14 K | 10.14
14.55 K | 10.74
14.95 K | 11.46
15 K | 11.59
15.36 K | 12.2
15.77 K | 12.88
16.17 K | 13.8
16.58 K | 14.68
16.99 K | 15.55
17.41 K | 16.41
17.82 K | 17.5
18.23 K | 18.49
18.65 K | 19.48
19.07 K | 20.54
19.48 K | 21.69
19.9 K | 23.01
20 K | 23.04
20.65 K | 24.46
21.68 K | 27.43
22.72 K | 30.51
23.77 K | 33.53
24.84 K | 36.78
25 K | 37.08
25.91 K | 40.14
26.99 K | 43.46
28.09 K | 47.02
29.19 K | 50.59
30 K | 53.06
30.31 K | 54.03
31.67 K | 58.43
32.99 K | 62.72
34.13 K | 66.37
35 K | 68.97
35.27 K | 70.06
36.42 K | 73.12
37.58 K | 77.03
38.73 K | 80.18
39.9 K | 83.86
40 K | 84.24
41.07 K | 87.28
42.25 K | 90.77
43.42 K | 94.06
44.6 K | 97.24
45 K | 98.58
45.79 K | 100.6
46.98 K | 104.2
48.17 K | 107.5
49.36 K | 110.7
50 K | 112.2
50.59 K | 113.9
51.85 K | 117.3
53.22 K | 120.9
54.67 K | 124.8
55.88 K | 127.9
57.09 K | 131
58.3 K | 134.2
59.51 K | 137.3
60 K | 138.8
60.73 K | 140.4
61.94 K | 143.5
63.16 K | 146.9
64.38 K | 150.7
65.6 K | 153.5
66.82 K | 156.6
68.05 K | 160.1
69.27 K | 162.8
70 K | 164.4
70.5 K | 165.1
71.99 K | 169.2
74 K | 173.6
76.06 K | 178.7
78.43 K | 183
80 K | 186.3
80.89 K | 187.7
82.9 K | 192.1
84.91 K | 195.6
86.92 K | 199
88.92 K | 202.8
90 K | 204.7
90.93 K | 206.4
92.93 K | 210.3
94.93 K | 214
96.93 K | 217.8
98.92 K | 222.6
100 K | 224.7
100.92 K | 227
103.4 K | 232.2
106.39 K | 237.8
109.39 K | 242.7
110 K | 244.1
112.4 K | 248.4
115.42 K | 253.8
118.43 K | 259.3
120 K | 262
121.45 K | 264.5
124.48 K | 269.8
127.5 K | 275.4
130 K | 280.1
130.53 K | 281.3
133.57 K | 286.9
136.6 K | 292.2
139.64 K | 297.9
140 K | 298.3
142.68 K | 303.3
145.73 K | 308.5
148.77 K | 314.4
150 K | 316.4
151.82 K | 319.5
154.87 K | 325
157.92 K | 330.4
160 K | 334.1
160.98 K | 335.8
164.06 K | 341.4
167.12 K | 346.3
170 K | 351.6
170.18 K | 351.6
173.24 K | 357.2
176.3 K | 362.7
179.37 K | 368.2
180 K | 369
182.43 K | 373.5
185.5 K | 378.4
188.56 K | 383.4
190 K | 386.3
191.63 K | 389.3
194.69 K | 394.9
197.76 K | 400.1
200 K | 403.7
200.82 K | 404.6
203.89 K | 410.4
207.45 K | 417
210 K | 421.1
211.53 K | 423.5
215.66 K | 431.6
219.74 K | 437.6
220 K | 438.6
223.82 K | 445.1
227.89 K | 452.3
230 K | 456.1
231.96 K | 459.5
236.04 K | 466.9
240 K | 473.7
240.12 K | 474.5
244.2 K | 481.2
248.27 K | 487.4
250 K | 491.2
252.34 K | 495.1
256.41 K | 502.6
260 K | 508.6
260.47 K | 509.7
264.53 K | 516.2
268.59 K | 523.3
270 K | 525.9
272.64 K | 530.3
273.15 K | 531.3
276.68 K | 537.3
280 K | 543.1
280.75 K | 545.1
284.78 K | 550.6
288.79 K | 558.6
290 K | 560.3
292.8 K | 565.2
296.8 K | 571.5
298.15 K | 574.4
300 K | 577.6
300.78 K | 578.9
306.79 K | 590
310 K | 595.2
312.24 K | 599.4
320 K | 613.1
320.03 K | 612.7
326.53 K | 625.5
330 K | 631.7
332.98 K | 637.3
333 K | 637.5
